Patent publication US12410171B2, “Tropomyosin receptor kinase (TRK) degradation compounds and methods of use” (Cullgen (Shanghai), Inc., priority 2020, dated 2025)

Biological target: T1, TPM3-TRKA fusion protein (Homo sapiens, UniProt P04629)
T1 construct: The resulted chimeric proteins always retain the kinase domain of TRK proteins; TPM3 (fusion partner, N-terminal part of tropomyosin alpha-3, P06753); endogenous in cells; host or cells: KM12 colon cancer cells; the other entry of the earlier key: TPM3 (P06753, Tropomyosin alpha-3 chain)
T1 sequence (P04629 with tags, fused parts or gaps): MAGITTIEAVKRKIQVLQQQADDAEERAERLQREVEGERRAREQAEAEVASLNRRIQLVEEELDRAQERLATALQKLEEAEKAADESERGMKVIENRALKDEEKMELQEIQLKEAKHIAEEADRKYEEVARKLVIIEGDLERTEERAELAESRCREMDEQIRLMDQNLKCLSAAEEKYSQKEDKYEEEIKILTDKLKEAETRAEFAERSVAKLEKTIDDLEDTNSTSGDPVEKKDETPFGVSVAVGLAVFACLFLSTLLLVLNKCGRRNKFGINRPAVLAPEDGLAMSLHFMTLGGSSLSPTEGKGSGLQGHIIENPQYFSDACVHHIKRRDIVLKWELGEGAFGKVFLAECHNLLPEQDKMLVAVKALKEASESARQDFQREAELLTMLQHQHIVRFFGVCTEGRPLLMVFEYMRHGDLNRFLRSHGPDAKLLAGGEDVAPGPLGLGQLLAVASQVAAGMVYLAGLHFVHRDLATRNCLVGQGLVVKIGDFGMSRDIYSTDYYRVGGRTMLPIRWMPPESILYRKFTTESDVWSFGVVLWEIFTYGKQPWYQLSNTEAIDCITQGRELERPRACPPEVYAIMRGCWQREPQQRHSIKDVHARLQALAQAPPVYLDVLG
Assay: TPM3-TRKA fusion protein levels in KM12 cells (Western blot)
Assay type: cell-based
Details: 16 h; TPM3-TRKA degradation in KM12 cells at 10 nM compound, category of percentage degradation; read-out: Degradation (at 10 nM)
How it was run: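 TPM3-TRKA levels were assessed by Western blot with chemiluminescent detection and band densitometry, after SDS-PAGE of BCA-normalized RIPA lysates. Before lysis, KM12 cells received DMSO, compounds or matched control compounds at concentrations including 0.1, 1, 10 and 100 nM and 0.4–30 nM. Exposures lasted 4 h, 8–16 h or 16 h.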

| SMILES | percent degradation of TPM3-TRKA protein at 0.01 µM [%] |
| --- | --- |
| O=C(CN1CCN(c2cccc(-c3cnc4ccc(N5CCC[C@@H]5c5cccc(F)c5)nn34)n2)CC1)NCCCCNc1ccc2c(c1)C(=O)N(C1CCC(=O)NC1=O)C2=O (stereo partly drawn) [TR-124, N-(4-((2-(2,6-dioxopiperidin-3-yl)-1,3-dioxoisoindolin-S-yl)amino)butyl)-2-(4-(6-(6-((R)-2-(3-fluorophenyl)pyrrolidin-1-yl)imidazo[1,2-b]pyridazin-3-yl)pyridin-2-yl)piperazin-1-yl)acetamide] | > 80 |
| O=C(CN1CCN(c2cccc(-c3cnc4ccc(N5CCC[C@@H]5c5cccc(F)c5)nn34)n2)CC1)NCCOCCOCCOCCOCCNc1ccc2c(c1)C(=O)N(C1CCC(=O)NC1=O)C2=O (stereo partly drawn) [TR-125, N-(14-((2-(2,6-dioxopiperidin-3-yl)-1,3-dioxoisoindolin-5-yl)amino)-3,6,9,12-tetraoxatetradecyl)-2-(4-(6-(6-((R)-2-(3-fluorophenyl)pyrrolidin-1-yl)imidazo[1,2-b]pyridazin-3-yl)pyridin-2-yl)piperazin-1-yl)acetamide] | > 80 |
| O=C(CN1CCN(c2cccc(-c3cnc4ccc(N5CCC[C@@H]5c5cccc(F)c5)nn34)n2)CC1)NCCCNc1ccc2c(c1)C(=O)N(C1CCC(=O)NC1=O)C2=O (stereo partly drawn) [TR-127, N-(3-((2-(2,6-dioxopiperidin-3-yl)-1,3-dioxoisoindolin-S-yl)amino)propyl)-2-(4-(6-(6-((R)-2-(3-fluorophenyl)pyrrolidin-1-yl)imidazo[1,2-b]pyridazin-3-yl)pyridin-2-yl)piperazin-1-yl)acetamide] | > 80 |
| O=C(CN1CCN(c2cccc(-c3cnc4ccc(N5CCC[C@@H]5c5cccc(F)c5)nn34)n2)CC1)NCCCCCCNc1ccc2c(c1)C(=O)N(C1CCC(=O)NC1=O)C2=O (stereo partly drawn) [TR-128, N-(6-((2-(2,6-dioxopiperidin-3-yl)-1,3-dioxoisoindolin-5-yl)amino)hexyl)-2-(4-(6-(6-((R)-2-(3-fluorophenyl)pyrrolidin-1-yl)imidazo[1,2-b]pyridazin-3-yl)pyridin-2-yl)piperazin-1-yl)acetamide] | > 80 |
| O=C(CN1CCN(c2cccc(-c3cnc4ccc(N5CCC[C@@H]5c5cccc(F)c5)nn34)n2)CC1)NCCOCCOCCOCCNc1ccc2c(c1)C(=O)N(C1CCC(=O)NC1=O)C2=O (stereo partly drawn) [TR-129, N-(2-(2-(2-(2-((2-(2,6-dioxopiperidin-3-yl)-1,3-dioxoisoindolin-5-yl)amino)ethoxy)ethoxy)ethoxy)ethyl)-2-(4-(6-(6-((R)-2-(3-fluorophenyl)pyrrolidin-1-yl)imidazo[1,2-b]pyridazin-3-yl)pyridin-2-yl)piperazin-1-yl)acetamide] | > 80 |
| O=C(CN1CCN(c2cccc(-c3cnc4ccc(N5CCC[C@@H]5c5cccc(F)c5)nn34)n2)CC1)NCCCCCNc1ccc2c(c1)C(=O)N(C1CCC(=O)NC1=O)C2=O (stereo partly drawn) [TR-131, N-(5-((2-(2,6-dioxopiperidin-3-yl)-1,3-dioxoisoindolin-5-yl)amino)pentyl)-2-(4-(6-(6-((R)-2-(3-fluorophenyl)pyrrolidin-1-yl)imidazo[1,2-b]pyridazin-3-yl)pyridin-2-yl)piperazin-1-yl)acetamide] | > 80 |
| O=C(CN1CCN(c2cccc(-c3cnc4ccc(N5CCC[C@@H]5c5cccc(F)c5)nn34)n2)CC1)NCCOCCOCCOCCOCCOCCNc1ccc2c(c1)C(=O)N(C1CCC(=O)NC1=O)C2=O (stereo partly drawn) [TR-132, N-(17-((2-(2,6-dioxopiperidin-3-yl)-1,3-dioxoisoindolin-5-yl)amino)-3,6,9,12,15-pentaoxaheptadecyl)-2-(4-(6-(6-((R)-2-(3-fluorophenyl)pyrrolidin-1-yl)imidazo[1,2-b]pyridazin-3-yl)pyridin-2-yl)piperazin-1-yl)acetamide] | > 80 |
| O=C(CN1CCN(c2cccc(-c3cnc4ccc(N5CCC[C@@H]5c5cccc(F)c5)nn34)n2)CC1)NCCOCCOCCNc1ccc2c(c1)C(=O)N(C1CCC(=O)NC1=O)C2=O (stereo partly drawn) [TR-134, N-(2-(2-(2-((2-(2,6-dioxopiperidin-3-yl)-1,3-dioxoisoindolin-5-yl)amino)ethoxy)ethoxy)ethyl)-2-(4-(6-(6-((R)-2-(3-fluorophenyl)pyrrolidin-1-yl)imidazo[1,2-b]pyridazin-3-yl)pyridin-2-yl)piperazin-1-yl)acetamide] | > 80 |

Continued, values first:

| percent degradation of TPM3-TRKA protein at 0.01 µM [%] | SMILES |
| --- | --- |
| > 80 | O=C1CCC(N2C(=O)c3ccc(NCCOCCOCCOCCOCCOCCC(=O)N4CCN(c5ccc(C(=O)Nc6n[nH]c7ccc(Cc8cc(F)cc(F)c8)cc67)c(NC6CCOCC6)c5)CC4)cc3C2=O)C(=O)N1 (stereo not drawn) [TR-137, N-(5-(3,5-Difluorobenzyl)-1H-indazol-3-yl)-4-(4-(1-((2-(2,6-dioxopiperidin-3-yl)-1,3-dioxoisoindolin-5-yl)amino)-3,6,9, 12, 15-pentaoxaoctadecan-18-oyl)piperazin-1-yl)-2-((tetrahydro-2H-pyran-4-yl)amino)benzamide] |
| > 80 | O=C1CCC(N2C(=O)c3ccc(NCCOCCOCCC(=O)N4CCN(c5ccc(C(=O)Nc6n[nH]c7ccc(Cc8cc(F)cc(F)c8)cc67)c(NC6CCOCC6)c5)CC4)cc3C2=O)C(=O)N1 (stereo not drawn) [TR-141, N-(5-(3,5-Difluorobenzyl)-1H-indazol-3-yl)-4-(4-(3-(2-(2-((2-(2,6-dioxopiperidin-3-yl)-1,3-dioxoisoindolin-5-yl)amino)ethoxy)ethoxy)propanoyl)piperazin-1-yl)-2-((tetrahydro-2H-pyran-4-yl)amino)benzamide] |
| > 80 | O=C1CCC(N2C(=O)c3ccc(NCCCCC(=O)N4CCN(c5ccc(C(=O)Nc6n[nH]c7ccc(Cc8cc(F)cc(F)c8)cc67)c(NC6CCOCC6)c5)CC4)cc3C2=O)C(=O)N1 (stereo not drawn) [TR-142, N-(5-(3,5-Difluorobenzyl)-1H-indazol-3-yl)-4-(4-(5-((2-(2,6-dioxopiperidin-3-yl)-1,3-dioxoisoindolin-5-yl)amino)pentanoyl)piperazin-1-yl)-2-((tetrahydro-2H-pyran-4-yl)amino)benzamide] |
| > 80 | O=C1CCC(N2C(=O)c3ccc(NCCOCCC(=O)N4CCN(c5ccc(C(=O)Nc6n[nH]c7ccc(Cc8cc(F)cc(F)c8)cc67)c(NC6CCOCC6)c5)CC4)cc3C2=O)C(=O)N1 (stereo not drawn) [TR-143] |
| > 80 | O=C1CCC(N2C(=O)c3ccc(NCC(=O)N4CCN(c5ccc(C(=O)Nc6n[nH]c7ccc(Cc8cc(F)cc(F)c8)cc67)c(NC6CCOCC6)c5)CC4)cc3C2=O)C(=O)N1 (stereo not drawn) [TR-144, N-(5˜ (3,5-Difluorobenzyl)-1H-indazol-3-yl)-4-(4-((2˜ (2,6-dioxopiperidin-3-yl)-1,3-dioxoisoindolin-5-yl)glycyl)piperazin-1-yl)-2-((tetrahydro-2H-pyran-4-yl)amino)benzamide] |
| > 80 | O=C1CCC(N2C(=O)c3ccc(NCCC(=O)N4CCN(c5ccc(C(=O)Nc6n[nH]c7ccc(Cc8cc(F)cc(F)c8)cc67)c(NC6CCOCC6)c5)CC4)cc3C2=O)C(=O)N1 (stereo not drawn) [TR-145, N—(S-(3,5-Difluorobenzyl)-1H-indazol-3-yl)-4-(4-(3-((2-(2,6-dioxopiperidin-3-yl)-1,3-dioxoisoindolin-S-yl)amino)propanoyl)piperazin-1-yl)-2-((tetrahydro-2H-pyran-4-yl)amino)benzamide] |
| > 80 | O=C1CCC(N2C(=O)c3ccc(NCCOCCOCCOCCC(=O)N4CCN(c5ccc(C(=O)Nc6n[nH]c7ccc(Cc8cc(F)cc(F)c8)cc67)c(NC6CCOCC6)c5)CC4)cc3C2=O)C(=O)N1 (stereo not drawn) [TR-146, N-(5-(3,5-Difluorobenzyl)-1H-indazol-3-yl)-4-(4-(3-(2-(2-(2-((2-(2,6-dioxopiperidin-3-yl)-1,3-dioxoisoindolin-5-yl)amino)ethoxy)ethoxy)ethoxy)propanoyl)piperazin-1-yl)-2-((tetrahydro-2/-pyran-4-yl)amino)benzamide] |
| > 80 | O=C(CN1CCN(c2ccc(C(=O)Nc3n[nH]c4ccc(Cc5cc(F)cc(F)c5)cc34)c(NC3CCOCC3)c2)CC1)NCCCCCCNc1cccc2c1C(=O)N(C1CCC(=O)NC1=O)C2=O (stereo not drawn) [TR-147, N—(S-(3,5-Difluorobenzyl)-1H-indazol-3-yl)-4-(4-(2-((6-((2-(2,6-dioxopiperidin-3-yl)-1,3-dioxoisoindolin-4-yl)amino)hexyl)amino)-2-oxoethyl)piperazin-1-yl)-2-((tetrahydro-2H-pyran-4-yl)amino)benzamide] |
| > 80 | O=C(CN1CCN(c2ccc(C(=O)Nc3n[nH]c4ccc(Cc5cc(F)cc(F)c5)cc34)c(NC3CCOCC3)c2)CC1)NCCCCCNc1cccc2c1C(=O)N(C1CCC(=O)NC1=O)C2=O (stereo not drawn) [TR-149, N-(5-(3,5-Difluorobenzyl)-1H-indazol-3-yl)-4-(4-(2-((5-((2-(2,6-dioxopiperidin-3-yl)-1,3-dioxoisoindolin-4-yl)amino)pentyl)amino)-2-oxoethyl)piperazin-1-yl)-2-((tetrahydro-2H-pyran-4-yl)amino)benzamide] |
| > 80 | O=C(CN1CCN(c2ccc(C(=O)Nc3n[nH]c4ccc(Cc5cc(F)cc(F)c5)cc34)c(NC3CCOCC3)c2)CC1)NCCOCCOCCOCCOCCNc1cccc2c1C(=O)N(C1CCC(=O)NC1=O)C2=O (stereo not drawn) [TR-150, N-(5-(3,5-Difluorobenzyl)-1H-indazol-3-yl)-4-(4-(17-((2˜ (2,6-dioxopiperidin-3-yl)-1,3-dioxoisoindolin-4-yl)amino)-2-oxo-6,9,12,15-tetraoxa-3-azaheptadecyl)piperazin-1-yl)-2˜ ((tetrahydro-2H-pyran-4-yl)amino)benzamide] |
